Experiments:
dipeptidyl peptidase IV = dipeptidyl peptidase IV (Sus scrofa, UniProt P22411); assay: DPP IV degradation, % intact peptide by HPLC; assay type: in vitro ADME, porcine; conditions: pig, purified porcine dipeptidyl peptidase IV (DPP IV), 37° C., pH 7.8
Experimental: (§1) HPLC peak area data were used to calculate the percentage intact peptide remaining at the various time points during the incubation.

[1] = target: purified porcine dipeptidyl peptidase IV (Sus scrofa, UniProt P22411); assay: DPP IV degradation, % intact peptide by HPLC; assay type: in vitro ADME; conditions: 37° C., pH 7.8
purified porcine dipeptidyl peptidase IV, sequence (P22411 whole entry): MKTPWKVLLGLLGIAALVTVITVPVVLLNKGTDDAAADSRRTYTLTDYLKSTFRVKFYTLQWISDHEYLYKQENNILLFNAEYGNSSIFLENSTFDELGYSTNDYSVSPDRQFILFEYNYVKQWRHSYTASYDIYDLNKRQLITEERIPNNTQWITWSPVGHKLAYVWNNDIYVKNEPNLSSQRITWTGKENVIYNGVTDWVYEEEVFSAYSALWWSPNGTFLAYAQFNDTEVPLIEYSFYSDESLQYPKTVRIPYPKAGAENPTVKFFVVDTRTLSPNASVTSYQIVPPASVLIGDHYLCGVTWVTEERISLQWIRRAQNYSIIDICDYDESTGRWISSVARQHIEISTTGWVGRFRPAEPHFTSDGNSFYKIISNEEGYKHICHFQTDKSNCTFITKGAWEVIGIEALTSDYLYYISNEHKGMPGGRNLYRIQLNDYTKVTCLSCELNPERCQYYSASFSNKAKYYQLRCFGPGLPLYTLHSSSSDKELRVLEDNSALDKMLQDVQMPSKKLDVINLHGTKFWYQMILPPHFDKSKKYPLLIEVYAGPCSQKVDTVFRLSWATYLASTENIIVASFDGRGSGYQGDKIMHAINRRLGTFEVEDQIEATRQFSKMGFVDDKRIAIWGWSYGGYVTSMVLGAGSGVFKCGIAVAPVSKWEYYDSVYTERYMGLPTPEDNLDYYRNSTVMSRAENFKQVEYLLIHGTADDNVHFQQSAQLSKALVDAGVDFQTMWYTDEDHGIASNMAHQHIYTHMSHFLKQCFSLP
Experimental: as §1

human GIP receptor = target: T1, human GIP receptor (Homo sapiens, UniProt P48546); assay: Intracellular cAMP production in GIP-receptor transfected CHL cells; assay type: cell-based
T1 construct: expressed in transfected cells; host or cells: Chinese hamster lung (CHL) fibroblasts
T1 sequence (P48546 22-466): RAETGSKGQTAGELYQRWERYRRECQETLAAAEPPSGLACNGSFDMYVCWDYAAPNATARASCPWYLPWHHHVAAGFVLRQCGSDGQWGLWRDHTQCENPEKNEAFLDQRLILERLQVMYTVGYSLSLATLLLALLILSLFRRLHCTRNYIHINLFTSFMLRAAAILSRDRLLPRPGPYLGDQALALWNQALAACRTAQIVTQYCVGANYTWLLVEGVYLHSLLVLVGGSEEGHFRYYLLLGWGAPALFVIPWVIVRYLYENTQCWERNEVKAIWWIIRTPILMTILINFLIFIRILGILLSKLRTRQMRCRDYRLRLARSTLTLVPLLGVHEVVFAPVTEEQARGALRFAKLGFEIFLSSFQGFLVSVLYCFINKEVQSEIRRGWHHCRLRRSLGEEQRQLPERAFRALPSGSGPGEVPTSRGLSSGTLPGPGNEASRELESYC
Experimental: The cells were then incubated at 37° C. for 6 hours in 1 ml DMEM, supplemented with 0.5% (w/v) BSA and subsequently washed twice with HBS buffer (Hanks Buffered Saline solution). […] The medium was subsequently removed and the cells lysed with 1 ml of 5% trichloroacetic acid containing 0.1 mM unlabelled cAMP and 0.1 mM unlabelled ATP. The intracellular tritiated cAMP was then separated on Dowex and alumina exchange resins (Life Science Research, Larne, UK).

D3 mouse ES cell line = assay: Differentiation of D3 mouse ES cells to beta cell phenotype, insulin release and insulin/C-peptide content; assay type: cell-based
Experimental: The D3 mouse ES cell line was routinely cultured on tissue culture plastic coated with 0.1% (w/v) gelatine in DMEM (25 mM glucose) containing 15% foetal bovine serum (FBS), 2 mM glutamine, 50 U/ml penicillin/streptomycin, non-essential amino acids, 0.1 mM β-mercaptoethanol, and 1000 U/ml LIF (leukaemia inhibitory factor). Medium was changed daily and cultures were passaged every 2 days onto fresh geletin-coated plates at a split ratio of 1:5. The cells were passaged by washing the cultures with phosphate-buffer saline and then detached from the plate with a trypsin (2.5 g/L)-EDTA (1 mM) solution. Prior to seeding into new flasks the ES cells were dissociated to single cells suspensions by repeated pipetting.
For differentiation of D3 mouse ES cells, an established protocol was used (Lumelsky, N. et al., 2001, Science 292(5520):1389-94). Briefly, LIF was removed from the culture medium, EBs (embryonic bodies) were then formed by growing the cells as non-adherent clusters. For the selection of nestin positive precursor cells, medium was changed to serum free ITSFn medium and for expanding these progenitors, cells were incubated in N2 serum free medium for 7 days (stage 4) and then differentiated into insulin-containing cell clusters by incubation in N2 serum free medium without bFGF, supplemented with 10 mM nicotinamide for 7 days (stage 5) (control protocol). […] The differentiated cells were harvested at the end of stage 4 and 5 and samples were seeded onto 24 well plates for insulin and C-peptide studies. Insulin release from differentiated cells from stages 4 and 5 were determined using cell monolayers. The cells were harvested with the aid of trypsin/EDTA (Gibco), seeded into 24-multiwell plates (Nunc, Rosklide, Denmark) at a density of 0.1×10^6 cells per well, and allowed to attach overnight.
Prior to the acute test, cells were washed three times and preincubated for 40 minutes at 37° C. in a 1.0 ml Krebs Ringer bicarbonate buffer (115 mM NaCl, 4.7 mM KCl, 1.28 mM CaCl2, 1.2 mM KH2PO4, 1.2 mM MgSO4, 10 mM NaHCO3, 5 g/l bovine serum albumin, pH 7.4) supplemented with 1.1 mM glucose. Test incubations were performed for 20 minutes at 37° C. using the same buffer supplemented with 5.6 mM glucose in the absence (control) and presence of various test agents as indicated in the Figures. After incubation, aliquots of buffer were removed and stored at −20° C. for insulin radioimmunoassay. For assessment of cellular hormone contents, the buffer was completely removed and […] of acid-ethanol solution (1.5% (v/v) HCl, 75% (v/v) ethanol, 23.5% (v/v) H2O) was added. The cells were disrupted with the aid of a pasture pipette and incubated overnight at 4° C. prior to centrifugation (900 rpm) and stored at −20° C.

ob/ob mice = assay: Acute glucose lowering and insulin release, peptide given i.p. with glucose to 18 hour fasted ob/ob mice
Experimental: Obese diabetic (ob/ob) mice derived from the colony maintained at Aston University, UK (23) were used at 12-16 weeks of age. […] Drinking water and standard rodent maintenance diet (Trouw Nutrition, Cheshire, UK) were freely available.
Food intake and body weight were recorded daily from 5 days before commencement of the treatment regimes. Plasma glucose and insulin concentrations (10:00 h) were monitored at 2-4 day intervals. […] All acute tests were commenced at 10:00 h. […] Serum samples were taken for determination of glucagon concentrations. All other blood samples were collected from the cut tip of the tail vein of conscious mice into chilled fluoride/heparin coated glucose microcentrifuge tubes (Sarstedt, Nümbrecht, Germany) at the times indicated in the Figures. Blood samples were immediately centrifuged using a Beckman microcentrifuge (Beckman Instruments, Galway, Ireland) for 30 seconds at 13,000×g. The resulting plasma was then aliquoted into fresh tubes and stored at −20° C. prior to glucose and insulin determinations.

[2] = culture media supplemented with 1×10^-6 M peptide, Stage 4
[3] = culture media supplemented with 1×10^-6 M peptide, Stage 5

dipeptidyl peptidase IV, sequence (P22411 whole entry): as the sequence (P22411 whole entry) above

With `CCCCCCCCCCCCCCCC(=O)NCCCC[C@H](NC(=O)[C@H](CC(=O)O)NC(=O)[C@H](CCSC)NC(=O)[C@H](C)NC(=O)[C@@H](NC(=O)[C@H](CO)NC(=O)[C@H](Cc1ccc(O)cc1)NC(=O)[C@H](CC(=O)O)NC(=O)[C@H](CO)NC(=O)[C@@H](NC(=O)[C@H](Cc1ccccc1)NC(=O)[C@@H](NC(=O)CNC(=O)[C@H](CCC(=O)O)NC(=O)[C@H](C)NC(=O)[C@@H](N)Cc1ccc(O)cc1)[C@@H](C)O)[C@@H](C)CC)[C@@H](C)CC)C(=O)N[C@H](C(=O)N[C@@H](Cc1c[nH]cn1)C(=O)N[C@@H](CCC(N)=O)C(=O)N[C@@H](CCC(N)=O)C(=O)N[C@@H](CC(=O)O)C(=O)N[C@@H](Cc1ccccc1)C(=O)N[C@H](C(=O)N[C@@H](CC(N)=O)C(=O)N[C@@H](Cc1c[nH]c2ccccc12)C(=O)N[C@@H](CC(C)C)C(=O)N[C@@H](CC(C)C)C(=O)N[C@@H](C)C(=O)N[C@@H](CCC(N)=O)C(=O)N[C@@H](CCCCN)C(=O)NCC(=O)N[C@@H](CCCCN)C(=O)N[C@@H](CCCCN)C(=O)N[C@@H](CC(N)=O)C(=O)N[C@@H](CC(=O)O)C(=O)N[C@@H](Cc1c[nH]c2ccccc12)C(=O)N[C@@H](CCCCN)C(=O)N[C@@H](Cc1c[nH]cn1)C(=O)N[C@@H](CC(N)=O)C(=O)N[C@H](C(=O)N[C@H](C(=O)N[C@@H](CCC(N)=O)C(=O)O)[C@@H](C)O)[C@@H](C)CC)C(C)C)[C@@H](C)CC` [GIP(LysPAL^16)] the remaining at 2 h, 2 mM (dipeptidyl peptidase IV; 2 h incubation with DPP IV (5 mU), read-out: % Intact peptide remaining after time (h) 2) was 100%, the remaining at 8 h, 2 mM (dipeptidyl peptidase IV; 8 h incubation with DPP IV (5 mU), read-out: % Intact peptide remaining after time (h) 8) was 100% and the remaining at 24 h, 2 mM (dipeptidyl peptidase IV; 24 h incubation with DPP IV (5 mU), read-out: % Intact peptide remaining after time (h) 24) was 100%. For the same compound, the “% Intact peptide remaining after time (h) 0” value ([1]; 0 h incubation with DPP IV (5 mU)) was 100%, the “% Intact peptide remaining after time (h) 24” value ([1]; 24 h incubation with DPP IV (5 mU)) was “remained fully intact” and the EC50 (human GIP receptor) was 2.9 nM. The “glucose-induced insulin release of differentiated stage 4 cells, modified versus control protocol” value (D3 mouse ES cell line; 1×10^-6 M peptide in media, stage 4, 0-22.0 mM glucose) was “significantly higher”, the “response of differentiated stage 5 cells to glucose” value (D3 mouse ES cell line; 1×10^-6 M peptide in media, stage 5) was “appear not respond to glucose” and the “increase in C-peptide content compared to control, stage 4” value (D3 mouse ES cell line; 1×10^-6 M peptide, stage 4) was 1.5 fold. For the same compound, the “increase in C-peptide content compared to control, stage 5” value (D3 mouse ES cell line; 1×10^-6 M peptide, stage 5) was 1.3 fold, the “C-Peptide content of differentiated D3 cluster cells, Stage 4” value (D3 mouse ES cell line; [2]) was 124.5 ± 3.13 pmol/mg protein/20 mins and the “Insulin content of differentiated D3 cluster cells, Stage 4” value (D3 mouse ES cell line; [2]) was 9154 ± 291.1 pmol/mg protein/20 mins. For the same compound, the “C-Peptide content of differentiated D3 cluster cells, Stage 5” value (D3 mouse ES cell line; [3]) was 121.9 ± 3.43 pmol/mg protein/20 mins, the “Insulin content of differentiated D3 cluster cells, Stage 5” value (D3 mouse ES cell line; [3]) was 8532 ± 626.5 pmol/mg protein/20 mins and the “plasma glucose concentrations and AUC (0-60 min) compared to glucose alone” value (ob/ob mice; 25 nmol/kg i.p. with glucose 18 mmol/kg) was “significantly reduced”. For the same compound, the “overall enhancement of insulin release over native GIP” value (ob/ob mice; 25 nmol/kg i.p. with glucose, insulin AUC 0-60 min) was 2.4 fold.
